Measured values: patent publication US9056914B2, “Anticancer derivatives, preparation thereof and therapeutic use thereof” (priority 2010, dated 2015)
pIC50: −log10 of the molar value.

Tests used:
Assay type in all cases: cell-based
[1] = tested on: HCT116 cells; assay: Inhibition of proliferation of HCT116 cells by tomaymycin dimers (14C-thymidine incorporation); conditions: Homo sapiens, HCT-116; HCT116, 3 days culture, 14C-thymidine incorporation at 96 h; read-out: Inhibition of proliferation (14C-thymidine pulse at 96 h) IC50 HCT116
Procedure: (§1) Evaluation of the Inhibition of Proliferation of the Cell Lines MDA-MB-231, MDA-A1 and HCT116 with the Compounds of Formula (IA) with RCG1=—SZa (Za=SMe) or RCG1=—C(═O)ZbRb (ZbRb=OMe)
(§2) MDA-MB-231, MDA-A1 or HCT116 cells in their exponential growth phase were trypsinized and resuspended in their respective culture medium (DMEM/F12 Gibco #21331, 10% FCS Gibco #10500-056, […] Glutamine Gibco #25030 for the MDA cells; DMEM Gibco #11960, 10% FCS Gibco #10500-056, 2 mM Glutamine Gibco #25030 for the HCT116 cells). The cell suspension was seeded in Cytostar 96-well culture plates (GE Healthcare Europe, #RPNQ0163) in the complete culture medium containing serum to a density of 5000 cells/well (MDA-MB-231, MDA-A1, HCT116). After incubation for 4 hours, successive dilutions of the tomaymycin dimers were added to the wells in triplicate for each concentration. The cells were cultured for 3 days at 37° C. under an atmosphere of 5% CO2 in the presence of the cytotoxic agents. On the fourth day, 10 μl of a solution of ^14C-thymidine (0.1 μCi/well, Perkin Elmer #NEC56825000) were added to each well. The incorporation of ^14C-thymidine was measured 96 hours after the start of the experiment with a Microbeta radioactivity counter (Perkin Elmer). The data are expressed in the form of a percentage of survival by determining the ratio between the Count obtained with the cells treated with the cytotoxic agents and that obtained with the cells of the control wells (treated with the culture medium alone).

[2] = tested on: MDA-A1 cells; assay: Inhibition of proliferation of MDA-A1 cells by tomaymycin dimers (14C-thymidine incorporation); conditions: MDA-A1, 3 days culture, 14C-thymidine incorporation at 96 h; read-out: Inhibition of proliferation (14C-thymidine pulse at 96 h) IC50 MDA-A1
Procedure: as §1, §2

[3] = tested on: MDA-MB-231 cells; assay: Inhibition of proliferation of MDA-MB-231 cells by tomaymycin dimers (14C-thymidine incorporation); conditions: Homo sapiens, MDA-MB231, 3 days culture, 14C-thymidine incorporation at 96 h, read-out: Inhibition of proliferation (14C-thymidine pulse at 96 h) IC50 MDA-MB231
Procedure: as §1, §2

| Compound | pIC50 [1] | pIC50 [2] | pIC50 [3] |
| --- | --- | --- | --- |
| C/C=C1\C[C@H]2C=Nc3cc(OCc4cc(OCCN(CCOCCOCCN5CCOCC5)CC(C)(C)SSC)cc(COc5cc6c(cc5OC)C(=O)N5C/C(=C/C)C[C@H]5C=N6)n4)c(OC)cc3C(=O)N2C1 | 10.32 | 7.58 | 10.09 |
| C/C=C1\C[C@H]2C=Nc3cc(OCc4cc(OCCN(CCCC(=O)OCC)CCOCCOCCOC)cc(COc5cc6c(cc5OC)C(=O)N5C/C(=C/C)C[C@H]5C=N6)n4)c(OC)cc3C(=O)N2C1 | 10.74 | 8.46 | 10.39 |
| C/C=C1\C[C@H]2C=Nc3cc(OCc4cc(OCCN(CCOCCOCCOC)CCC(=O)OC)cc(COc5cc6c(cc5OC)C(=O)N5C/C(=C/C)C[C@H]5C=N6)n4)c(OC)cc3C(=O)N2C1 | 9.63 | 7.75 | 9.42 |
| C/C=C1\C[C@H]2C=Nc3cc(OCc4cc(OCCN(CCCC(=O)OCC)C(=O)CCOCCOCCOCCOC)cc(COc5cc6c(cc5OC)C(=O)N5C/C(=C/C)C[C@H]5C=N6)n4)c(OC)cc3C(=O)N2C1 | 8.30 | < 7.30 | 8.25 |
| C/C=C1\C[C@H]2C=Nc3cc(OCc4cc(OCCN(CCOCCOCCOC)CC(C)(C)SSC)cc(COc5cc6c(cc5OC)C(=O)N5C/C(=C/C)C[C@H]5C=N6)n4)c(OC)cc3C(=O)N2C1 | 10.21 | 7.79 | 9.89 |
